{"source": "paper PMC10194981", "about": "“Chemosensory protein regulates the behavioural response of Frankliniella intonsa and Frankliniella occidentalis to tomato zonate spot virus–Infected pepper (Capsicum annuum)” (PLOS Pathogens, 2023)", "key": {"[1]": {"molecular_target": "FoccCSP-Val132Ala (Frankliniella occidentalis, UniProt G4Y3X1, V132A)", "sequence (G4Y3X1 entry or part of it V132A)": "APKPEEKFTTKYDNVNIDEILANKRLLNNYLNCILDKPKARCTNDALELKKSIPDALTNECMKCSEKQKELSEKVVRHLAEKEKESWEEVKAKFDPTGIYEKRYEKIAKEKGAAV", "test": "Fluorescence (1-NPN) binding and competitive binding assay, FoccCSP mutant (negative control residue)", "protocol": "The binding affinity of FintCSP1 and FoccCSP to the fluorescent probe N-phenyl-1-naphthylamine (1-NPN) was tested using a Spectramax M2 fluorescence spectrometer (Molecular Devices, USA) as reported previously. Volatile compounds and 1-NPN were first dissolved to a concentration of 1 mM in HPLC-grade methanol and dissolved to their indicated final concentration (2–20 μM) to titrate 2 μM protein solutions resuspended in 50 mM Tris-HCl (pH 7.4). The 1-NPN/FintCSP1 or 1-NPN/FoccCSP mixture was excited at 280 nm, and the emission spectra were recorded at 415 nm. The binding constants (Kd) of FintCSP1 or FoccCSP to 1-NPN were calculated by Scatchard analysis using Prism 5 software (GraphPad, La Jolla, CA, USA). Assuming a protein activity of 100% and that the volatile compound binds to the protein in a 1:1 ratio at saturation, the dissociation constants (Ki) of FintCSP1 or FoccCSP for each ligand were calculated according to the IC50 (the concentration when the ligand replaces 50% of the probe) value of the volatile compounds. The Ki values were calculated according to the following equation: Ki = [IC50]/(1 + [1-NPN]/K1-NPN), where [1-NPN] is the free concentration of 1-NPN, and K1-NPN is the Kd of the 1-NPN/FintCSP1 or 1-NPN/FoccCSP.\nTo verify the key amino acids of FintCSP1 and FoccCSP that bind to cis-3-hexenal, six amino acid residues of FintCSP1 were mutated (Lys26Ala, Phe27Ala, Thr28Ala, Glu67Ala, Ser84Ala, and the negative control residue Val132Ala) and nine amino acid residues of FoccCSP were mutated (Lys26Ala, Phe27Ala, Thr28Ala, Thr29Ala, Tyr31Ala, Asp64Ala, Glu67Ala, Gln87Ala, and the negative control residue Val132Ala) with the Fast Mutagenesis System Kit (Transgen Biotech, Beijing, China) using the pET-30a/FintCSP1 and pET-30a/FoccCSP plasmid DNA as template, respectively. Specific primers were designed using Primer Premier 5.0 according to the instructions of the Fast Mutagenesis System Kit (S1 Table). After validation by sequencing, each recombinant variant protein was produced and purified as described above, and their binding affinity to cis-3-hexenal was measured as described above."}, "[2]": {"test_system": "F. occidentalis", "test": "Y-tube olfactometer preference test", "assay_type": "in vivo, Frankliniella occidentalis", "conditions": "dsFoccCSP-injected; vs liquid paraffin control", "protocol": "F. intonsa and F. occidentalis preference tests of plant volatile cues were performed using a glass Y-tube olfactometer according to the method described by Wang et al. (2014) with minor modifications. A Y-shaped tube (1-cm inner diameter) consisted of a central tube (10 cm in length) and two arms (10 cm in length, offset by 60°) connected to two different glass odor bottles. One glass odor bottle was 50 cm in height, with a 10-cm inner diameter that contained pepper plants (14-day post-viral infection); the other glass odor bottle was 5 cm in height, with a 3-cm inner diameter for plant VOCs. The airflow in the olfactometer (200 mL/min) was filtered through activated carbon and calibrated using a flow meter at the end of each arm. To remove all visual cues, the Y-tube was positioned horizontally in a black airtight cubic box (90 cm × 60 cm × 40 cm). The tested odor sources (pepper plant VOCs) were enclosed in the odor bottles 5 min prior to each test to allow the odors to fill the arms. Thrips (2-day-old, starved for 1 h) were individually placed in the central tube and allowed to choose between the two arms. […] If the thrips had not made a choice after being placed in the straight arm for 5 min, the insect behaviour was scored as “no selection,” and it was not counted in the total data. […]"}, "[3]": {"test_system": "F. occidentalis antennae", "test": "Electroantennogram (EAG) assay", "design": "species or system Frankliniella occidentalis", "conditions": "dsFoccCSP-injected compared to dsEGFP-injected F. occidentalis", "protocol": "The FintCSP1, FintCSP2, FintOBP, FintOR, FoccCSP, and enhanced green fluorescent protein (EGFP) coding sequences were obtained from GenBank under accession numbers MT199111, MT211602, OK067245, MT211603, AEP27186.1, and U55761.1, respectively. Primers were designed using Primer Premier 5.0, and the T7 promoter sequence (5′-[…]-3′) was added to the 5′ end of each primer (S1 Table). DNA fragments containing T7 promoter sequences were amplified by PCR using pEASY-T1/target gene or pUC-EGFP (preserved in the laboratory) plasmid DNA as template. Then, a double-stranded RNA (dsRNA) was produced from each target gene using the HiScribe T7 Quick High Yield RNA Synthesis Kit (New England Biolabs) according to the manufacturer’s instructions. […]\nAt 24 h after dsRNA injection, the electrophysiological responses of F. intonsa antennae to six volatile components (i.e., m-cymene, cis-3-hexenal, (+)-2-carene, trans-2-hexenal, α-phellandrene, and α-humulene) or F. occidentalis antennae to cis-3-hexenal were recorded using EAG. […] The EAG values to volatile compounds were calculated using the following equation: absolute value of EAG reaction = reaction value of the tested sample—average value of two control measurements."}, "[4]": {"test_system": "Anagrus nilaparvatae", "design": "method as in PMID 31300659", "conditions": "1:20,000 dilution; cited from earlier work"}, "[5]": {"test_system": "fall webworm moth (Hyphantria cunea) antennae", "design": "method as in PMID 23166622", "conditions": "cited from earlier work"}}}
{"smiles": "CC/C=C\\CC=O", "note": "[cis-3-hexenal]", "values": [{"measurement": "IC50", "setting": "[1]", "value": "28.7 ± 0.12", "unit": "µM"}, {"measurement": "Ki", "setting": "[1]", "value": "23.69 ± 0.1", "unit": "µM"}, {"measurement": "binding to cis-3-hexenal (in words)", "setting": "[1]; FoccCSP-Val132Ala compared to the wild-type protein", "value": "only a minor change in binding"}, {"measurement": "preference of dsFoccCSP-silenced F. occidentalis (in words)", "setting": "[2]", "value": "no clear preference"}, {"measurement": "EAG response of FoccCSP-silenced antennae (in words)", "setting": "[3]", "value": "significantly lower response"}, {"measurement": "attraction of Anagrus nilaparvatae (in words)", "setting": "[4]", "value": "attracts Anagrus nilaparvatae"}, {"measurement": "effect on antennal sensitivity to pheromones (in words)", "setting": "[5]", "value": "raising the sensitivity"}]}
